Experimental findings from patent US20250130225A1, “SUBSTRATES FOR IMAGING GLUCOCEREBROSIDASE ACTIVITY” (SIMON FRASER UNIVERSITY, priority 2021, published 2025) are described below.

The target of one data set is T1, GCase (Homo sapiens, UniProt P04062).
T1 construct: High content imaging of SK-N-SH cells incubated for 2 h; endogenous in cells; host or cells: SK-N-SH
T1 sequence (P04062 40-536): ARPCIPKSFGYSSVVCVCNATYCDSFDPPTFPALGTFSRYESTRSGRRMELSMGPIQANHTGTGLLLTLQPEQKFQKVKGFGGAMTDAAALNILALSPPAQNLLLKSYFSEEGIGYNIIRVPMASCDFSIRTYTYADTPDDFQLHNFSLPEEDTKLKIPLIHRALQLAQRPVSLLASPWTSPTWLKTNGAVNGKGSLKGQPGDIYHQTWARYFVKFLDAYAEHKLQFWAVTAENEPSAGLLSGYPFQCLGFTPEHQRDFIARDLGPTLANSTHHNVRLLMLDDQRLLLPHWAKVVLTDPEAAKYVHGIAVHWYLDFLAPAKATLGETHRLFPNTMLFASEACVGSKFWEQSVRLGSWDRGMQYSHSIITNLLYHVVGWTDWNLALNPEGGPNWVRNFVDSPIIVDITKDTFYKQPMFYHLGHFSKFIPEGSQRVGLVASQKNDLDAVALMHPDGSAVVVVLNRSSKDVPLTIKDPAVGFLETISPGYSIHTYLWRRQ
The data set can be described thus: GCase inhibition by AT3375 in live SK-N-SH cells read with substrate 1. The conditions noted are these: 10 μM AT3375 with 5 μM substrate 1, 2 h. In kind it is cell-based.

Data set [1] deals with T2, purified recombinant GCase (Homo sapiens, UniProt P04062).
T2 construct: purchased R&D Systems
T2 sequence (P04062 40-536): T1 sequence (P04062 40-536)
The data set can be described thus: In-vitro kinetic assay with purified recombinant GCase. The format is biochemical. The conditions noted are these: same kinetic assay, substrate 3 vs 9b. As to the method:
(§1) In-vitro kinetic assay for substrate 1. Continuous assays were performed at 30° C. in citrate-phosphate buffer (150 mM; pH 5.4) containing 0.25% taurodeoxycholate. The concentrations of substrate 1 used in assays were 0.39, 0.78, 1.56, 3.13 6.25, 12.5, 25 and 50 μM. Reactions were initiated by the addition of purified recombinant GCase (2.5 nM, R&D Systems) and the reaction was monitored continuously over 1200 seconds to determine the initial rate of change of fluorescence. Standard curves were constructed using BODIPY® Fl-acid using the same buffer conditions. […] Assays were carried out in triplicate.
as §1, with “Comparative In-vitro” for “In-vitro”, “substrate 3 and 9b.” for “substrate 1.”, “of substrates 3 and 9b” for “of substrate 1”, “were 0.156, 0.313, 0.625, 1.25, 2.5, 5, 10,” for “were 0.39, 0.78, 1.56, 3.13 6.25, 12.5, 25”, “and 20” for “and 50”, “using TAMRA and BODIPY-576” for “using BODIPY® Fl-acid”

Data set [2] is described as follows: Fluorescence emission spectrum and quenching efficiency of substrate 1 versus BODIPY FL-acid. In kind it is physicochemical. As to the method: Fluorescence emission spectra for substrate 1 and BODIPY® FL-acid: The emission spectra were obtained for substrate 1 and BODIPY® FL-acid in citrate-phosphate buffer (150 mM; pH 5.4) containing 1% DMSO and 0.25% taurodeoxycholate. Data were collected using a Molecular Devices plate reader ([…]). […] The excitation wavelength used was 485 nm and the emission wavelength was 513 nm.
Determination of the quenching efficiencies for substrate 1 using concentration dependent variation in the fluorescence emission of substrate 1 and its corresponding fluorophore BODIPY® FL-acid: The quenching efficiencies were determined by comparing the fluorescence emission standard curves of substrate 1 and comparing it to that of BODIPY® Fl-acid.

Turning to `O[C@H]1[C@H](O)CNC[C@@H]1C(F)F` [AT3375, (3R,4R,5S)-5-(difluoromethyl)piperidine-3,4-diol], on GCase, the “effect on fluorescent signal from substrate 1” value is recorded as “significant reduction of the punctuated fluorescent signal”.
For `COc1cc(/N=N/c2ccc([N+](=O)[O-])cc2)c(OC)cc1/N=N/c1ccc(N(C)CCCC(=O)NCCc2ccc(O[C@@H]3O[C@H](COCCCCn4cc(CNC(=O)[C@H](CCCCN(C)C)NC(=O)c5ccc(-c6c7ccc(=[N+](C)C)cc-7oc7cc(N(C)C)ccc67)c(C(=O)O)c5)nn4)[C@@H](O)[C@H](O)[C@H]3O)cc2)cc1` [substrate 3, 5-(((S)-1-(((1-(4-(((2R,3S,4S,5R,6S)-6-(4-(2-(4-((4-((E)-(2,5-dimethoxy-4-((E)-(4-nitrophenyl)diazenyl)phenyl)diazenyl)phenyl)(methyl)amino)butanamido)ethyl)phenoxy)-3,4,5-trihydroxytetrahydro-2H-pyran-2-yl)methoxy)butyl)-1H-1,2,3-triazol-4-yl)methyl)amino)-6-(dimethylamino)-1-oxohexan-2-yl)carbamoyl)-2-(6-(dimethylamino)-3-(dimethyliminio)-3H-xanthen-9-yl)benzoate], in data set [1], the “second order rate constant relative to 9b” value is given as “more than 5 fold”.
`COc1cc(/N=N/c2ccc(C)cc2[N+](=O)[O-])c(C)cc1/N=N/c1ccc(N(C)CCCC(=O)NCCCO[C@@H]2O[C@H](COCc3cn(CCCNC(=O)[C@H](CCCCN(C)C)NC(=O)CCC4=[N+]5C(=Cc6c(C)cc(C)n6[B-]5(F)F)C=C4)nn3)[C@@H](O)[C@H](O)[C@H]2O)cc1` [substrate 1, (S)-2-(3-(5,5-difluoro-7,9-dimethyl-dipyrrolo[1,2-c:2′,1′-f][1,3,2]diazaborinin-4-ium-5-uid-3-yl)propanamido)-6-(dimethylamino)-N-(3-(4-((((2R,3S,4S,5R,6R)-3,4,5-trihydroxy-6-(3-(4-((4-((E)-(2-methoxy-5-methyl-4-((E)-(4-methyl-2-nitrophenyl)diazenyl)phenyl)diazenyl)phenyl)(methyl)amino)butanamido)propoxy)tetrahydro-2H-pyran-2-yl)methoxy)methyl)-1H-1,2,3-triazol-1-yl)propyl)hexanamide]: in data set [2] (6.25 μM, citrate-phosphate buffer 150 mM, pH 5.4, excitation 485 nm, emission 513 nm), the “fluorescence emission of intact substrate compared to free fluorophore BODIPY FL-acid” value is recorded as “strikingly little fluorescence”. The quenching efficiency result in data set [2] (fluorescence emission standard curves compared to BODIPY Fl-acid) is listed as “greater than 99.7%”.
